Measured values reported in patent US20250171776A1, “NON-CANONICAL CELL-PENETRATING PEPTIDES FOR ANTISENSE OLIGOMER DELIVERY” (priority 2023, published 2025).
Where no end group is shown, it is not given here. [ ]: non-standard residue; d: D form. Cit = NC(=O)NCCC[C@H](N)C(=O)O; Api = NC1(C(=O)O)CCNCC1; Dab = NCC[C@H](N)C(=O)O; Iph = iodophenylalanine

Tested on: HELA-654 cells
Assay: Hela-654 eGFP assay (incucyte imaging, GFP positive cells, 72 h)
Assay type: cell-based
Settings: 72 h, read-out: EC50 (at 72 h)
Method: HELA-654 cells were imaged at 72 hours with an incucyte and the number of GFP positive cells versus total cell counts were calculated with the incucyte image analysis software. Statistical analysis was conducted using a one-way analysis of variance (ANOVA) test with Dunnett's multiple comparison test. Bars represent mean±standard deviation (SD), with P<0.05 was considered to indicate statistical significance, (**** p<0.0001, *** […], ** p<0.01, * p<0.05).
HELA-654 cells were imaged at 72 hours with an incucyte and the number of GFP positive cells versus total cell counts were calculated with the incucyte image analysis software.

Substance	EC50
Dab-Pro-Arg-Dab-Leu-His-Ser-Dab-Ala-Thr-Lys-Trp-Lys-Lys ([Dab]PR[Dab]LHS[Dab]ATKWKK; also: PMO conjugate) [PMO-CXP5]	10 µM
GCTATTACCTTAACCCAG (all phosphorodiamidate morpholino (PMO)) [reference compound]	22.7 µM

Same assay, conditions: CXP1 Dab analogs, 72 h, read-out: EC50 (at 72 h)

Substance	EC50
Dab-Gln-Dab-Thr-Ser-Iph-Gly-Arg-Gly-Dab-Dab-Trp-Dab-Dab-Lys-Trp-Lys-Lys ([Dab]Q[Dab]TS[Iph]GRG[Dab][Dab]W[Dab][Dab]KWKK; also: PMO conjugate) [PMO-CXP1AE]	6.38 µM
Dab-Gln-Dab-Thr-Ser-Iph-Gly-Arg-Gly-Pip-Dab-Trp-Dab-Dab-Lys-Trp-Lys-Lys ([Dab]Q[Dab]TS[Iph]GRG[Api][Dab]W[Dab][Dab]KWKK; also: PMO conjugate) [PMO-CXP1AC]	4.75 µM
Dab-Gln-Dab-Thr-Ser-Iph-Gly-Dab-Gly-Dab-Dab-Trp-Dab-Dab-Lys-Trp-Lys-Lys [PMO-CXP1AF]	5.73 µM
Dab-Gln-Dab-Thr-Ser-Iph-Gly-Dab-Gly-Pip-Dab-Trp-Dab-Dab-Lys-Trp-Lys-Lys [PMO-CXP1AD]	5.64 µM

Same assay, conditions: Iph scan, 30 μM of compound, 72 hours

Substance	Percentage of GFP Positive Cells at 72 hours (30 μM)
Iph-Gln-Lys-Thr-Ser-Iph-Gly-Arg-Gly-Pip-Lys-Trp-Lys-Lys ([Iph]QKTS[Iph]GRG[Api]KWKK; also: PMO conjugate) [PMO-CXP1Q]	85%
Lys-Gln-Iph-Thr-Ser-Iph-Gly-Arg-Gly-Pip-Lys-Trp-Lys-Lys (KQ[Iph]TS[Iph]GRG[Api]KWKK; also: PMO conjugate) [PMO-CXP1R]	87.6%

Same assay, conditions: alanine scan, 20 μM of PPMO, 72 hours

Substance	Percentage of GFP Positive Cells at 72 hours (20 μM)
Ala-Gln-Lys-Thr-Ser-Iph-Gly-Arg-Gly-Pip-Lys-Trp-Lys-Lys (AQKTS[Iph]GRG[Api]KWKK; also: PMO conjugate) [PMO-CXP1B]	50.5%
Lys-Ala-Lys-Thr-Ser-Iph-Gly-Arg-Gly-Pip-Lys-Trp-Lys-Lys (KAKTS[Iph]GRG[Api]KWKK; also: PMO conjugate) [PMO-CXP1C]	50.0%
Lys-Gln-Ala-Thr-Ser-Iph-Gly-Arg-Gly-Pip-Lys-Trp-Lys-Lys (KQATS[Iph]GRG[Api]KWKK; also: PMO conjugate) [PMO-CXP1D]	48.2%
Lys-Gln-Lys-Ala-Ser-Iph-Gly-Arg-Gly-Pip-Lys-Trp-Lys-Lys (KQKAS[Iph]GRG[Api]KWKK; also: PMO conjugate) [PMO-CXP1E]	70.5%
Lys-Gln-Lys-Thr-Ala-Iph-Gly-Arg-Gly-Pip-Lys-Trp-Lys-Lys (KQKTA[Iph]GRG[Api]KWKK; also: PMO conjugate) [PMO-CXP1F]	65.5%
Lys-Gln-Lys-Thr-Ser-Ala-Gly-Arg-Gly-Pip-Lys-Trp-Lys-Lys (KQKTSAGRG[Api]KWKK; also: PMO conjugate) [PMO-CXP1G]	55.8%
Lys-Gln-Lys-Thr-Ser-Iph-Ala-Arg-Ala-Pip-Lys-Trp-Lys-Lys (KQKTS[Iph]ARA[Api]KWKK; also: PMO conjugate) [PMO-CXP1P]	41.6%
Lys-Gln-Lys-Thr-Ser-Iph-Ala-Arg-Gly-Pip-Lys-Trp-Lys-Lys (KQKTS[Iph]ARG[Api]KWKK; also: PMO conjugate) [PMO-CXP1H]	65.5%
Lys-Gln-Lys-Thr-Ser-Iph-Gly-Ala-Gly-Pip-Lys-Trp-Lys-Lys (KQKTS[Iph]GAG[Api]KWKK; also: PMO conjugate) [PMO-CXP1I]	42.0%

Same assay, conditions: chimeric peptide PMO conjugates, 72 h, read-out: EC50 (at 72 h)

Substance	EC50
Cit-Met-Phe-Gly-Pip-Dab-Dab-Lys-Ala-Pro-Lys-Trp-Lys-Lys-Gly-Lys-Gln-Lys-Thr-Ser-Iph-Gly-Arg-Gly-Pip-Lys-Trp-Lys-Lys ([Cit]MFG[Api][Dab][Dab]KAPKWKKGKQKTS[Iph]GRG[Api]KWKK; also: PMO conjugate) [PMO-CXP4-CXP1]	59.2 µM
Dab-Val-Ala-Arg-Asn-Asn-Dab-Thr-Lys-Gly-Lys-Trp-Lys-Lys-Gly-Lys-Gln-Lys-Thr-Ser-Iph-Gly-Arg-Gly-Pip-Lys-Trp-Lys-Lys [PMO-CXP3-CXP1]	0.026 µM
